Assay results taken from paper PMC12595434, “Development of retinoid nuclear receptor pathway antagonists through targeting aldehyde dehydrogenase 1A3” (iScience, 2025).
Values joined by “and” are separate entries in the source; they are usually repeats but may differ in a detail not shown here. Equal entries are not always repeated.

Experiments:
Plasma stability (human) = assay type: in vitro ADME; conditions: read-out: Plasma stability T1/2 (human)
RHPN2 = molecular target: T1, RHPN2 (Homo sapiens, UniProt Q8IUC4); assay: Thermal proteome profiling (TPP) in A375 cells; assay type: cell-based; conditions: RHPN2, 100 nM
T1 construct: Treated A375 cells were harvested from 10 × 15 cm plates; endogenous in cells; host or cells: A375 melanoma cells

TPX2 = molecular target: T2, TPX2 (Homo sapiens, UniProt Q9ULW0); assay: Thermal proteome profiling (TPP) in A375 cells; assay type: cell-based; conditions: TPX2, 100 nM
T2 construct: Treated A375 cells were harvested from 10 × 15 cm plates; endogenous in cells; host or cells: A375 melanoma cells

C19orf66 = molecular target: T3, C19orf66 (Homo sapiens, UniProt Q9NUL5); assay: Thermal proteome profiling (TPP) in A375 cells; assay type: cell-based; conditions: C19orf66, 1 uM
T3 construct: Treated A375 cells were harvested from 10 × 15 cm plates; endogenous in cells; host or cells: A375 melanoma cells

NET = NET (Homo sapiens, UniProt P23975); assay: Off-target profiling panel; assay type: binding; conditions: read-out: Inhibition by MBE1 at 10 μM (%)
5HT2B = 5HT2B (Homo sapiens, UniProt P41595); assay: Off-target profiling panel; assay type: binding; conditions: read-out: Inhibition by MBE1 at 10 μM (%)
H1 = H1 (Homo sapiens, UniProt P35367); assay: Off-target profiling panel; assay type: binding; conditions: read-out: Inhibition by MBE1 at 10 μM (%)
D1 = D1 (Homo sapiens, UniProt P21728); assay: Off-target profiling panel; assay type: binding; conditions: read-out: Inhibition by MBE1 at 10 μM (%)
op-kappa = op-kappa (Homo sapiens, UniProt P41145); assay: Off-target profiling panel; assay type: binding; conditions: read-out: Inhibition by MBE1 at 10 μM (%)
5HT1B = 5HT1B (Homo sapiens, UniProt P28222); assay: Off-target profiling panel; assay type: binding; conditions: read-out: Inhibition by MBE1 at 10 μM (%)
Beta1 = Beta1 (Homo sapiens, UniProt P08588); assay: Off-target profiling panel; assay type: binding; conditions: read-out: Inhibition by MBE1 at 10 μM (%)
ACHE = ACHE (Homo sapiens, UniProt P22303); assay: Off-target profiling panel; assay type: biochemical; conditions: read-out: Inhibition by MBE1 at 10 μM (%)
MAO-A = MAO-A (Homo sapiens, UniProt P21397); assay: Off-target profiling panel; assay type: biochemical; conditions: read-out: Inhibition by MBE1 at 10 μM (%)
PDE3A = PDE3A (Homo sapiens, UniProt Q14432); assay: Off-target profiling panel; assay type: biochemical
hKCNQ1 = hKCNQ1 (Homo sapiens, UniProt P51787); assay: Off-target profiling panel; assay type: cell-based; conditions: read-out: Inhibition by MBE1 at 10 μM (%)
HEK293 cells = assay: Metabolomic profiling of treated cell lines (raw metabolite counts); assay type: cell-based; conditions: HEK293_Inhibitor, replicates A-C
Description: Supplement mmc8.xlsx, sheet "Supplement Table 7" | column: HEK293_Inhibitor_A; HEK293_Inhibitor_B; HEK293_Inhibitor_C

ALDH1A3 = molecular target: T4, ALDH1A3 (Homo sapiens, UniProt P47895); assay: Thermal proteome profiling (TPP) in A375 cells; assay type: cell-based; design: endogenous in cells; host or cells: A375 cells; conditions: 100 nM and 1 μM MBE1, A375 cells
T4 sequence (P47895 1-512): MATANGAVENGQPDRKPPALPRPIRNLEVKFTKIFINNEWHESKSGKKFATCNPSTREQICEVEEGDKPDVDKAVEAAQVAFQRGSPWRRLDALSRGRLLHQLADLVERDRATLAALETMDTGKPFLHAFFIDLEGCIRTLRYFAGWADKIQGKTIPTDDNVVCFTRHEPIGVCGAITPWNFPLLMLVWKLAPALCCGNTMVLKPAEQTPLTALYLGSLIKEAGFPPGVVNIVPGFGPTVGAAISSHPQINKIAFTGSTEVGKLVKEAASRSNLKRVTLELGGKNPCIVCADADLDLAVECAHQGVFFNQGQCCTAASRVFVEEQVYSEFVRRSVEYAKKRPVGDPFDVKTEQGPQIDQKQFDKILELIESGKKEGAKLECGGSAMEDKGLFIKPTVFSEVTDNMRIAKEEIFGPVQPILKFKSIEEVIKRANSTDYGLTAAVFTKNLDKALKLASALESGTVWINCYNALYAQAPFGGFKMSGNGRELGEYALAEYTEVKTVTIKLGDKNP

T3-MCA tumors = assay: Tumor infiltrating immune cell profiling of T3-MCA tumors; conditions: oral gavage, 7 days of treatment
[1] = system: panel of 23 human cancer cell lines; assay: Aldefluor assay, panel of 23 human cancer cell lines; assay type: cell-based; conditions: 100 nM; most solid cancer types except liver cancer
Experimental: To determine the breadth of ALDH1A3 activity across human cancers and assess the target engagement of these discovered compounds across tumor models, we profiled a panel of 23 human cancer cell lines with the Aldefluor assay. […] Next, we assessed whether ALDH1A3 affects cell growth across this broad panel of cancer types by testing proliferation for each cell line with and without MBE1.5.
In addition, cells were suspended at a concentration of 100,000 cells per mL. Finally, DMSO was added to at 1% final in all cells to improve kinetics of the assay. For compound titrations, concentrated compound stock was added first to tubes and a uniform Aldefluor buffer containing the cell suspension was added to dilute to final volumes. Cells were analyzed by a BD LSRII for flow cytometry and were sorted using a FACSAria Fusion cell sorter (BD Biosciences) equipped with a 70 micron nozzle. Sample and sort collection tubes were kept at 4°C. […] DAPI was used as a live-dead indicator.

ALDH1A3 mRNA = assay: RT-qPCR of ALDH1A3 mRNA after treatment; assay type: cell-based, human; conditions: multiple cell lines

T1 sequence (Q8IUC4 whole entry): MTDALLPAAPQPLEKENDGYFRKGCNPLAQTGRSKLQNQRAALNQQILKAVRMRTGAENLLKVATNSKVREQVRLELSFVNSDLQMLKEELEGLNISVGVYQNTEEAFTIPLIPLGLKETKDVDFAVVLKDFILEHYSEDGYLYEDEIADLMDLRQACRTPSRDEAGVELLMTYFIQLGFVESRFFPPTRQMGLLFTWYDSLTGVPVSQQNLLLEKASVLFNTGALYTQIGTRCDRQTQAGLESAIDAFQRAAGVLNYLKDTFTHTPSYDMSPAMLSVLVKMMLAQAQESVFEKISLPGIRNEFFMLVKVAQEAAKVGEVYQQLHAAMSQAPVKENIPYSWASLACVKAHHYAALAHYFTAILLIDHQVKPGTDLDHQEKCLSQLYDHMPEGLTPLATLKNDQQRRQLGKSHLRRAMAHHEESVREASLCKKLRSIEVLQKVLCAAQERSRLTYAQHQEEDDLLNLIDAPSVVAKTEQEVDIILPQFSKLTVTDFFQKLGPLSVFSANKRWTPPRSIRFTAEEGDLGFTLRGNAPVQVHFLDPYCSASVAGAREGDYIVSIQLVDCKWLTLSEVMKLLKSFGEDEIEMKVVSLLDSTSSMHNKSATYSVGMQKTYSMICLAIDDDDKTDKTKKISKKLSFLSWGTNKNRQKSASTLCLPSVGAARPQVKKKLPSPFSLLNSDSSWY
T2 sequence (Q9ULW0 whole entry): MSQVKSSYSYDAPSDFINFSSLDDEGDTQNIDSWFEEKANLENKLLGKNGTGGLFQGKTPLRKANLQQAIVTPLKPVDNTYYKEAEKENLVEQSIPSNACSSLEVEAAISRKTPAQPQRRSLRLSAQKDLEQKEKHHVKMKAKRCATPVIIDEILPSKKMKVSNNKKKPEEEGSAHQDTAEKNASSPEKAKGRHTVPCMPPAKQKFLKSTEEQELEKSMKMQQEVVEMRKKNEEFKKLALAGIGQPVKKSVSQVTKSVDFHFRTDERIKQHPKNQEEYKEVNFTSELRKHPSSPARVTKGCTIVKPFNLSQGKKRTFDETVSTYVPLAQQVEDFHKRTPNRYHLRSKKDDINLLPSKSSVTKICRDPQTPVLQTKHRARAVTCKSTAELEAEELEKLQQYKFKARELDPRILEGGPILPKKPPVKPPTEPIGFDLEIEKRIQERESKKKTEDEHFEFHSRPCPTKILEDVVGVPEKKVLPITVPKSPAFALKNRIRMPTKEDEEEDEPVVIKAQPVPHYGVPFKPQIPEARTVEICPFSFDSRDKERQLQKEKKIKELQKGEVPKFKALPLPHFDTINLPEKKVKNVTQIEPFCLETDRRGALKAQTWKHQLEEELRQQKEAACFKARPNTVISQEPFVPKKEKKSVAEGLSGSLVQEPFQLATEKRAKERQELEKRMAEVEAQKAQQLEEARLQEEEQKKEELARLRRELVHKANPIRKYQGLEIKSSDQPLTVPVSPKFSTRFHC
PDE3A, sequence (Q14432 whole entry): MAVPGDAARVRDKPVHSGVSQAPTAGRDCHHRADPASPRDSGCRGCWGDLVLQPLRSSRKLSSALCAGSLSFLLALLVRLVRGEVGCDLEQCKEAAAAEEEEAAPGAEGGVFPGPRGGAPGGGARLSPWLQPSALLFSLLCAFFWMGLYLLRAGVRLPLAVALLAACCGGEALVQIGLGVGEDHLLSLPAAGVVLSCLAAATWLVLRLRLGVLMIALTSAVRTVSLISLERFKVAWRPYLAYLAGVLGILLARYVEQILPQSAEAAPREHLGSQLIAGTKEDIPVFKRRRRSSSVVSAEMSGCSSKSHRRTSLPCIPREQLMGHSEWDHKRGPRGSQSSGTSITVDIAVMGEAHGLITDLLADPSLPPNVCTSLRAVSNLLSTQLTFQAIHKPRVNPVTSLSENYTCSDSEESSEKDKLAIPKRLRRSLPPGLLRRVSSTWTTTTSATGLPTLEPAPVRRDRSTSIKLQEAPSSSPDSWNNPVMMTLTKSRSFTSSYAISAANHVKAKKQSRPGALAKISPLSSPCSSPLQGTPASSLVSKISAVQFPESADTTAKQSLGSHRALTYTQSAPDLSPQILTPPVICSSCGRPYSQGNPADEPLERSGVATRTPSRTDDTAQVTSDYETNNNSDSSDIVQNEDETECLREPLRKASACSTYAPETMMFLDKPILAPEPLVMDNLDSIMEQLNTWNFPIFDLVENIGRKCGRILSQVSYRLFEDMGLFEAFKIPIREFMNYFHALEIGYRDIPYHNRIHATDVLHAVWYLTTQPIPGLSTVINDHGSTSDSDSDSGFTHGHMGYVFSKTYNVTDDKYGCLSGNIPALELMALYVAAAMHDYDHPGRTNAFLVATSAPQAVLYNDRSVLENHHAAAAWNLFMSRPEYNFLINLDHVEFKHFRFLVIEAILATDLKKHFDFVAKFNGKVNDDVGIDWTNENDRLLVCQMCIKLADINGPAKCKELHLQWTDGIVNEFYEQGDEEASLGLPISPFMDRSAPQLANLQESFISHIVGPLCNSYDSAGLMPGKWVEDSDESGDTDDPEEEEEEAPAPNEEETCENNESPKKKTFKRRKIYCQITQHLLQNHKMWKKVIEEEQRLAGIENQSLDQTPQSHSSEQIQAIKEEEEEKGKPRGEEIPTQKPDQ
T3 sequence (Q9NUL5 whole entry): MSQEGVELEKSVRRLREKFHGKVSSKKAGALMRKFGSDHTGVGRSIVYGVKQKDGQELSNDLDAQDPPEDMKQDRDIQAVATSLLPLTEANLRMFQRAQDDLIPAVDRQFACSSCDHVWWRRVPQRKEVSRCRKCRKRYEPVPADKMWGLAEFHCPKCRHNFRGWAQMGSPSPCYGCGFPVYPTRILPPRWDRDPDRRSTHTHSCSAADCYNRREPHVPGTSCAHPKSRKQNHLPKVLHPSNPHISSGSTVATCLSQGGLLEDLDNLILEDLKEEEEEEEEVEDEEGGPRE
Beta1, sequence (P08588 whole entry): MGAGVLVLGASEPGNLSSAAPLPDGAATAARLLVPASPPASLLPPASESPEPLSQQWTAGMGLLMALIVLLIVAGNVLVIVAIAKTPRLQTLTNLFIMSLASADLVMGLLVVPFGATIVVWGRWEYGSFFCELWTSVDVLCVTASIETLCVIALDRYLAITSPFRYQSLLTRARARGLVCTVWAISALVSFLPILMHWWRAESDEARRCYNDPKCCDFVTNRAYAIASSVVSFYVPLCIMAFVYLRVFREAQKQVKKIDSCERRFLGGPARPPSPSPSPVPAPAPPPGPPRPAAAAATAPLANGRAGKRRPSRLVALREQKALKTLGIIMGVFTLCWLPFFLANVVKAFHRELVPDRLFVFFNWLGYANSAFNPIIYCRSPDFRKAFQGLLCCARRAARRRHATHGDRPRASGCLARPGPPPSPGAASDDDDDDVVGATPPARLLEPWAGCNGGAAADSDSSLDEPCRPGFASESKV
H1, sequence (P35367 whole entry): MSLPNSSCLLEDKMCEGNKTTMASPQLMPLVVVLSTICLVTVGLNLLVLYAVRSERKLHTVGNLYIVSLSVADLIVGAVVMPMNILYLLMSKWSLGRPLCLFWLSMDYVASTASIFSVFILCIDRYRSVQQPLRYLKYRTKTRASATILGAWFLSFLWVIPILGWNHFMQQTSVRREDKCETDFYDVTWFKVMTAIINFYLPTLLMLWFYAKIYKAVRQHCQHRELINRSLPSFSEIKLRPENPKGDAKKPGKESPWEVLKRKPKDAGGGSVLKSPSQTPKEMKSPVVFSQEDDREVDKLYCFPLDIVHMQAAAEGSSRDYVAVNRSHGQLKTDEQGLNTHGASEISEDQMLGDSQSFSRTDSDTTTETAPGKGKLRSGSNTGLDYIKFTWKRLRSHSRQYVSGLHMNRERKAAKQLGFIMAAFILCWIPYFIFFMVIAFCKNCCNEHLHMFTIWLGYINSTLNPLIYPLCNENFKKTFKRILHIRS
MAO-A, sequence (P21397 whole entry): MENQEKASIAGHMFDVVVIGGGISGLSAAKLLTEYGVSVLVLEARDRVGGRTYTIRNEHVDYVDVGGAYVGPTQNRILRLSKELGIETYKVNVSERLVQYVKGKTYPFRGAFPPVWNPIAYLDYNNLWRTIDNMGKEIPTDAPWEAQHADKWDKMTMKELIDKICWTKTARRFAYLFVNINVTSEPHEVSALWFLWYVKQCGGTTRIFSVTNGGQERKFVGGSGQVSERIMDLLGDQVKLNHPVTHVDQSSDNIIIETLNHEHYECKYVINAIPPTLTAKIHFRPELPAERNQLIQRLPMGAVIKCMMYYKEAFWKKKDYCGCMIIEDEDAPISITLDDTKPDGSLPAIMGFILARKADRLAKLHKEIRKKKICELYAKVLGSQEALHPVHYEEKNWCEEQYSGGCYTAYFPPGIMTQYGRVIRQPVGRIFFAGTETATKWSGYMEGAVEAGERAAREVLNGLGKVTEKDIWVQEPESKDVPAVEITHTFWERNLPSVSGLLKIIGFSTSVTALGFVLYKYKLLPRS
5HT1B, sequence (P28222 whole entry): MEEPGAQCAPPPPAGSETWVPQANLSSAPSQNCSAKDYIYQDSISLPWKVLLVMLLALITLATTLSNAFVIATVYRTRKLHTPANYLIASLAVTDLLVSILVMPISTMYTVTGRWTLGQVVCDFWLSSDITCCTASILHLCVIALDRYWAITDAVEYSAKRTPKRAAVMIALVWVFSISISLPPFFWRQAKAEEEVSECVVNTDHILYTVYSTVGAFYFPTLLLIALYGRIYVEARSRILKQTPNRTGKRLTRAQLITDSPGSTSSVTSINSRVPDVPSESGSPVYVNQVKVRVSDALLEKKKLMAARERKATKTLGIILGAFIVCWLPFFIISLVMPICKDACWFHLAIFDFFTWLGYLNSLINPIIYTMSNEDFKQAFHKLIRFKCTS

In the case of CCc1cnccc1C(=O)Nc1cc2c(cc1F)NC(=O)CC2 [MBE1, 3-ethyl-N-(7-fluoro-2-oxo-3,4-dihydro-1H-quinolin-6-yl)pyridine-4-carboxamide], the half-life (Plasma stability (human)) is reported as over 4.82 h, the “100nM MBE1 Tm” value (RHPN2) is reported as 58.0062 and the “DMSO-100nM MBE1 TM” value (RHPN2) is reported as -9.514. For the same molecule, the “100nM MBE1 Tm” value (TPX2) was 64, the “DMSO-100nM MBE1 TM” value (TPX2) was -7.655 and the “1uM MBE1 Tm” value (C19orf66) was 53.8379. It also gave an inhibition at 10 µM (NET) of -19.9%, an inhibition at 10 µM (5HT2B) of -6.81% and an inhibition at 10 µM (H1) of -11.7%. For the same molecule, the inhibition at 10 µM (D1) was -16.4%, the inhibition at 10 µM (op-kappa) was -12.6% and the inhibition at 10 µM (5HT1B) was 5.26%. It also gave an inhibition at 10 µM (Beta1) of -8.49%, an inhibition at 10 µM (ACHE) of 5.81% and an inhibition at 10 µM (MAO-A) of -8.05%. The inhibition at 10 µM (PDE3A; read-out: Inhibition by MBE1 at 10 μM (%)) was 75.8%, the “concentration for PDE3α interaction as multiple of IC50 against ALDH1A3” value (PDE3A; screen against 44 off-target proteins) was over 100 fold and the inhibition at 10 µM (hKCNQ1) was 11.9%. For the same molecule, the “Raw counts of 2-Hydroxybutyric acid” value (HEK293 cells) was 460406 and 376147 and 351707, the “Raw counts of 3-Hydroxybutyric acid” value (HEK293 cells) was 2036524 and 1752460 and 1814028 and the “Raw counts of 3-Phosphoglycerate” value (HEK293 cells) was 54741.2 and 47239.6 and 67920.5. For the same molecule, the “Raw counts of 3-Phosphoserine” value (HEK293 cells) was 379486 and 687080 and 597417, the “Raw counts of 6-Phosphogluconate” value (HEK293 cells) was 18526.1 and 6100.06 and 8926.16 and the “Raw counts of Carbamoyl phosphate” value (HEK293 cells) was 141074 and 139557 and 164484. The “Raw counts of Citrulline” value (HEK293 cells) was 520045 and 463794 and 470630, the “Raw counts of Cytidine” value (HEK293 cells) was 7575.12 and 7385.3 and 7444.6 and the “Raw counts of Hypoxanthine” value (HEK293 cells) was 234438 and 380137 and 398453. For the same molecule, the “Raw counts of Isoleucine” value (HEK293 cells) was 1.16E+08 and 1.15E+08 (2×), the “Raw counts of Lactate” value (HEK293 cells) was 5.47E+08 and 4.80E+08 and 4.40E+08 and the “Raw counts of Leucine” value (HEK293 cells) was 9.35E+07 and 8.69E+07 and 8.73E+07. The “Raw counts of Methionine” value (HEK293 cells) was 2.07E+07 and 2.11E+07 and 2.08E+07, the “Raw counts of N-acetyl-glutamine” value (HEK293 cells) was 1122707 and 1247401 and 1071948 and the “Raw counts of Orotate” value (HEK293 cells) was 98388.4 and 120085 and 73533.2. For the same molecule, the “Raw counts of Phenylalanine” value (HEK293 cells) was 8.50E+07 and 7.66E+07 and 8.04E+07, the “Raw counts of Phosphoenolpyruvate” value (HEK293 cells) was 10515.5 and 13057.1 and 9934.64 and the “Raw counts of Pyridoxine” value (HEK293 cells) was 4.65E+07 and 4.40E+07 and 4.42E+07. For the same molecule, the “Raw counts of Pyruvate” value (HEK293 cells) was 7987114 and 6360434 and 6733166, the “Raw counts of Ribitol” value (HEK293 cells) was 2730293 and 2993915 and 2689879 and the “Raw counts of Sorbitol” value (HEK293 cells) was 1.69E+07 and 1.55E+07 and 1.59E+07. The “Raw counts of Taurine” value (HEK293 cells) was 2.13E+07 and 2.37E+07 and 2.28E+07, the “Raw counts of Tryptophan” value (HEK293 cells) was 1.16E+07 and 1.11E+07 and 1.10E+07 and the “Raw counts of Tyrosine” value (HEK293 cells) was 4.24E+07 and 4.04E+07 and 3.95E+07. For the same molecule, the “Raw counts of UDP” value (HEK293 cells) was 175249 and 191418 and 196338, the “Raw counts of Uracil” value (HEK293 cells) was 1015162 and 942022 and 907732 and the “Raw counts of Uridine” value (HEK293 cells) was 82140.1 and 83430.9 and 107857. The “Raw counts of Valine” value (HEK293 cells) was 7.12E+07 and 6.86E+07 and 6.72E+07, the “Raw counts of Xanthine” value (HEK293 cells) was 7637154 and 6442670 and 6627934 and the “thermal stabilization of ALDH1A3 in TPP (in words)” value (ALDH1A3) was “stabilized”. For the same molecule, the “CD4 T cells as percentage of total CD45^+ immune cells (in words)” value (T3-MCA tumors) was “increased CD4 T cells”.

With CCc1ccccc1C(=O)Nc1cc2c(cc1F)NC(=O)CC2 [MBE1.5, 2-ethyl-N-(7-fluoro-2-oxo-3,4-dihydro-1H-quinolin-6-yl)benzamide] the “inhibition of Aldefluor activity across cancer cell line panel (in words)” value [1] was “potently inhibited Aldefluor activity” and the “feedback effect on ALDH1A3 expression (in words)” value (ALDH1A3 mRNA) was “no feedback effect”.
